In patent publication US20140080868A1, “Methods for Treating HCV” (priority 2012, published 2014):

Experiments:
Type in all cases: cell-based
[1] = system: HCV replicon with NS5A genotype 4a L30H variant; assay: Transient chimeric replicon assay, genotype 4a L30H; details: Hepatitis C virus, read-out: Average EC50
Description: (§1) Transiently replicating chimeric replicons containing NS5A from genotype 2-6 wild types or replicons containing variants within NS5A were constructed in the 1b-Con1 background. These replicons also contained a firefly luciferase reporter gene. Variants were introduced by site-directed mutagenesis using the Change-IT Multiple Mutation Site Directed Mutagenesis Kit (USB). After the mutagenesis was confirmed by sequence analysis, the plasmids were linearized with Scat restriction enzyme. The TranscriptAid T7 High Yield Transcription Kit (Fermentas) was used to transcribe the HCV subgenomic RNA from the plasmids. The RNA was transfected via electroporation into a Huh-7 derived cell line as described (see Middleton et al. and Tripathi et al., supra) except that 3×10^6 cells were electroporated with 15 μg of template RNA and the 96 well plate was seeded with 7.5×10^3 cells per well. Four hours post-transfection, the wells from one plate were harvested for luciferase measurement. […] Luciferin solution (50 μl, Promega) was added to each well, and luciferase activity was measured with a Victor II luminometer (Perkin-Elmer). The percent inhibition of HCV RNA replication was calculated for each compound concentration and the EC50 value was calculated using nonlinear regression curve fitting to the 4-parameter logistic equation and GraphPad Prism 4 software.

[2] = system: HCV replicon with NS5A genotype 6a T58A variant; assay: Transient chimeric replicon assay, genotype 6a T58A; details: Hepatitis C virus, read-out: Average EC50
Description: as §1

[3] = system: HCV variants that are resistant to other NS5A inhibitors; assay: Transient subgenomic replicon assays, resistant variant panel (summary statement); details: Hepatitis C virus, read-out: EC50 values against HCV variants resistant to other NS5A inhibitors, transient subgenomic replicon assays
Description: as §1

[4] = system: HCV replicon with NS5A genotype 5a wild type; assay: Transient chimeric replicon assay, genotype 5a WT; details: Hepatitis C virus, read-out: Average EC50
Description: as §1

[5] = system: HCV replicon with NS5A from genotype 5a; assay: Stable chimeric 1b-Con1 replicon with NS5A from genotype 5a; details: Hepatitis C virus, read-out: Mean EC50 ± Std. Dev.
[6] = system: HCV replicon with NS5A from genotype 6a; assay: Stable chimeric 1b-Con1 replicon with NS5A from genotype 6a; details: Hepatitis C virus, read-out: Mean EC50 ± Std. Dev.
[7] = system: HCV replicon with NS5A from genotype 2a; assay: Stable chimeric 1b-Con1 replicon with NS5A from genotype 2a; details: Hepatitis C virus, read-out: Mean EC50 ± Std. Dev.
[8] = system: HCV replicon with NS5A genotype 2b L28F variant; assay: Transient chimeric replicon assay, genotype 2b L28F; details: Hepatitis C virus, read-out: Average EC50
Description: as §1

[9] = system: HCV replicon with NS5A genotype 5a L28I variant; assay: Transient chimeric replicon assay, genotype 5a L28I; details: Hepatitis C virus, read-out: Average EC50
Description: as §1

[10] = system: HCV replicon with NS5A genotype 3a wild type; assay: Transient chimeric replicon assay, genotype 3a WT; details: Hepatitis C virus, read-out: Average EC50
Description: as §1

[11] = system: HCV replicon with NS5A from genotype 3a; assay: Stable chimeric 1b-Con1 replicon with NS5A from genotype 3a; details: Hepatitis C virus, read-out: Mean EC50 ± Std. Dev.
[12] = system: HCV replicon genotype 1b-Con1; assay: Stable subgenomic replicon luciferase assay, genotype 1b-Con1; details: Hepatitis C virus, luciferase reporter, 5% FBS, read-out: Mean EC50 ± Std. Dev.
[13] = system: HCV replicon with NS5A genotype 3a Y93H variant; assay: Transient chimeric replicon assay, genotype 3a Y93H; details: Hepatitis C virus, read-out: Average EC50
Description: as §1

[14] = system: HCV replicon with NS5A genotype 2b wild type; assay: Transient chimeric replicon assay, genotype 2b WT; details: Hepatitis C virus, read-out: Average EC50
Description: as §1

[15] = system: HCV replicon with NS5A genotype 6a L31V variant; assay: Transient chimeric replicon assay, genotype 6a L31V; details: Hepatitis C virus, read-out: Average EC50
Description: as §1

[16] = system: HCV replicon with NS5A from genotype 4a; assay: Stable chimeric 1b-Con1 replicon with NS5A from genotype 4a; details: Hepatitis C virus, read-out: Mean EC50 ± Std. Dev.
[17] = system: HCV replicon genotype 1a-H77; assay: Stable subgenomic replicon luciferase assay, genotype 1a-H77; details: Hepatitis C virus, luciferase reporter, 5% FBS, read-out: Mean EC50 ± Std. Dev.
[18] = system: HCV replicon with NS5A genotype 6a wild type; assay: Transient chimeric replicon assay, genotype 6a WT; details: Hepatitis C virus, read-out: Average EC50
Description: as §1

[19] = system: stable subgenomic replicons with NS5A from HCV genotype 1a, 1b, 2a, 2b, 3a, 4a, 5a, and 6a; assay: Stable subgenomic replicons, genotype panel (summary statement); details: Hepatitis C virus, read-out: EC50 values against stable subgenomic replicons with NS5A from a broad range of HCV genotypes
[20] = system: HCV replicon with NS5A genotype 2a T24A variant; assay: Transient chimeric replicon assay, genotype 2a T24A; details: Hepatitis C virus, read-out: Average EC50
Description: as §1

[21] = system: HCV replicon with NS5A genotype 6a T58N variant; assay: Transient chimeric replicon assay, genotype 6a T58N; details: Hepatitis C virus, read-out: Average EC50
Description: as §1

[22] = system: HCV replicon with NS5A genotype 2a wild type; assay: Transient chimeric replicon assay, genotype 2a WT; details: Hepatitis C virus, read-out: Average EC50
Description: as §1

[23] = system: HCV replicon with NS5A genotype 5a L31F variant; assay: Transient chimeric replicon assay, genotype 5a L31F; details: Hepatitis C virus, read-out: Average EC50
Description: as §1

[24] = system: HCV replicon with NS5A from genotype 2b; assay: Stable chimeric 1b-Con1 replicon with NS5A from genotype 2b; details: Hepatitis C virus, read-out: Mean EC50 ± Std. Dev.
[25] = system: HCV replicon with NS5A genotype 4a L28V variant; assay: Transient chimeric replicon assay, genotype 4a L28V; details: Hepatitis C virus, read-out: Average EC50
Description: as §1

[26] = system: HCV replicon with NS5A genotype 2b L31V variant; assay: Transient chimeric replicon assay, genotype 2b L31V; details: Hepatitis C virus, read-out: Average EC50
Description: as §1

[27] = system: HCV replicon with NS5A genotype 5a L31V variant; assay: Transient chimeric replicon assay, genotype 5a L31V; details: Hepatitis C virus, read-out: Average EC50
Description: as §1

[28] = system: HCV replicon with NS5A genotype 3a M28T variant; assay: Transient chimeric replicon assay, genotype 3a M28T; details: Hepatitis C virus, read-out: Average EC50
Description: as §1

SMILES | EC50 [2] [nM] | EC50 [8] [nM] | EC50 [9] [nM] | EC50 [10] [pM] | EC50 [13] [pM] | EC50 [14] [pM] | EC50 [15] [nM] | EC50 [18] [nM] | EC50 [20] [nM] | EC50 [21] [nM] | EC50 [22] [pM] | EC50 [23] [nM] | also measured
COC(=O)N[C@H](C(=O)N1CCC[C@H]1c1nc2cc([C@H]3CC[C@H](c4cc5nc([C@@H]6CCCN6C(=O)[C@@H](NC(=O)OC)[C@@H](C)OC)[nH]c5cc4F)N3c3cc(F)c(N4CCC(c5ccc(F)cc5)CC4)c(F)c3)c(F)cc2[nH]1)[C@@H](C)OC [Compound 1, methyl {(2S,3R)-1-[(2S)-2-{5-[(2R,5R)-1-{3,5-difluoro-4-[4-(4-fluorophenyl)piperidin-1-yl]phenyl}-5-(6-fluoro-2-{(2S)-1-[N-(methoxycarbonyl)-O-methyl-L-threonyl]pyrrolidin-2-yl}-1H-benzimidazol-5-yl)pyrrolidin-2-yl]-6-fluoro-1H-benzimidazol-2-yl}pyrrolidin-1-yl]-3-methoxy-1-oxobutan-2-yl}carbamate] | 0.0015 | 0.0011 | 0.001 | 1.8 | 4.3 | 1 | 0.001 | 0.0014 | 0.0013 | 0.0025 | 1.3 | 0.0019 | EC50 [1]: 1 pM; EC50 [3]: < 5 µM; EC50 [4]: 1.1 pM; EC50 [5]: 1.4 ± 0.4 pM; EC50 [6]: 2.8 ± 0.7 pM; EC50 [7]: 2.3 ± 0.7 pM; EC50 [11]: 2.1 ± 0.7 pM; EC50 [12]: 4.3 ± 1.7 pM; EC50 [16]: 1.9 ± 0.6 pM; EC50 [17]: 1.8 ± 0.9 pM; EC50 [19]: < 10 µM; EC50 [24]: 1.9 ± 0.6 pM
COC(=O)N[C@H](C(=O)N1CCC[C@H]1C(=O)Nc1ccc([C@@H]2CC[C@@H](c3ccc(NC(=O)[C@@H]4CCCN4C(=O)[C@@H](NC(=O)OC)C(C)C)cc3)N2c2ccc(C(C)(C)C)cc2)cc1)C(C)C [reference compound, reference compound] | 1.15 | 0.039 | 0.072 | 7.2 | > 100000 | 1.1 | 5.04 | 0.08 | 0.092 | 8.47 | 3.4 | 0.263 | EC50 [25]: 5.3 pM; EC50 [26]: 0.427 nM; EC50 [27]: 0.221 nM; EC50 [28]: 3.03 nM
